The text below walks through data of patent publication US6984499B2, “Method and apparatus for concurrently detecting pathogenic organisms and antimicrobial susceptibility” (IDEXX Laboratories, Inc., priority 1997, dated 2006).

The test system of experiment [1] is gram negative urinary pathogens (Escherichia coli, Klebsiella spp, Enterobacter spp., Proteus spp.). The experiment is described as follows: AMO medium (amoxicillin) in urinary tract infection device. It is filed as cell-based, feline and canine urine specimens. On the procedure:
The medium is formulated according to techniques well known to those skilled in the art. The medium comprises UTI media with amoxicillin at a concentration of 8 mg/liter.
A total of 303 feline and canine urine specimens were collected from the animals suspected of having urinary tract infection were tested with the “AMO” medium. A 50 μl aliquot of the urine specimen was added to 10 ml of sterile saline solution (0.85% NaCl solution). A 100 μl of the diluted urine specimens were added to the “AMO” medium in the urinary tract infection device; the device was then incubated at 35° C. for 24 hours.

The test system is the same in experiment [2]. The experiment is described as follows: standard Kirby-Bauer antimicrobial susceptibility assay, amoxicillin. The note with it: Total of 58. It counts as cell-based, feline and canine urine specimens. On the procedure: For comparison a traditional microbiological culture, bacterial identification technique, and antimicrobial susceptibility test were performed. A portion of 1 μl urine specimen was streaked onto a blood agar plate; the plate was then incubated at 35° C. for 24–48 hours. […] The susceptibility of amoxicillin of the gram negative urinary pathogens (Escherichia coli, Klebsiella spp, Enterobacter supp., and Proteus spp.) Were performed by standard Kirby-Bauer antimicrobial susceptibility assay.

Experiment [3] concerns primary gram negative uropathogens. As to the kind of experiment: five-well device (TVB, UTI, AMO, AMC, ENR wells), fluorescence, four urine samples. It counts as cell-based. To be noted: Sample 2; incubation 18 hours. The text has this:
In a presently preferred embodiment, this invention comprises a device having a series of 5 test wells. Each well comprises a specific medium coupled with a fluorogenic enzyme substrate for the detection of target bacteria and their respective antibiotic resistance patterns. The wells produce a fluorescent signal when bacteria grow in them.
The wells were termed a total viable bacteria “TVB” well, a primary gram negative urinary tract infection organisms “UTI” well, and individual wells which contain an antimicrobial susceptibility media with an antibiotic amoxicillin “AMO”, clavulanic acid/amoxicillin (Clavamox®) “AMC”, or enrofloxacin (Baytril®) “ENR”.
The total viable bacteria “TVB” well, when it fluoresces, indicates the presence of bacteria in the urine sample. The “UTI” well fluoresces when the common Gram-negative uropathogens (E. coli, Klebsiella or Enterobacter spp., and P. mirabilis) are present in the urine sample. […]
For each device, after an incubation period of 18 hours, the wells were examined for the development of fluorescence and conclusions about the presence of primary urinary pathogens and their susceptibility to the antimicrobial agents employed were drawn.

In experiment [4] the test system is gram negative urinary pathogens (Escherichia coli, Klebsiella spp, Enterobacter spp., Proteus spp.). As to the kind of experiment: ENR medium (enrofloxacin) in urinary tract infection device. It is filed as cell-based, feline and canine urine specimens. The method, then:
The medium is formulated according to techniques well known to those skilled in the art. The media comprises UTI media with enrofloxacin (ENR) at a concentration of 2.0 mg/liter.
A total of 303 feline and canine urine specimens were collected from the animals suspected of having urinary tract infection were tested with the “ENR” medium. A 50 μl aliquot of the urine specimen was added to 10 ml of sterile saline solution (0.85% NaCl solution). A 100 μl of the diluted urine specimens was added to the “ENR” medium in the urinary tract infection device; the device was then incubated at 35° C. for 24 hours.

The test system is the same in experiment [5]. The experiment is described as follows: standard Kirby-Bauer antimicrobial susceptibility assay, enrofloxacin. It is filed as cell-based, feline and canine urine specimens. To be noted: Total of 58. The method, then: For comparison a traditional microbiological culture, bacterial identification technique, and antimicrobial susceptibility test were performed. A portion of 1 μl urine specimen was streaked onto a blood agar plate; the plate was then incubated at 35° C. for 24–48 hours. […] The susceptibility of enrofloxacin of the gram negative urinary pathogens (Escherichia coli, Klebsiella spp, Enterobacter spp., and Proteus spp.) were performed by standard Kirby-Bauer antimicrobial susceptibility assay.

Experiment [6] has as its system Enterobacter cloacae ATCC 13047. As to the kind of experiment: standard Muller Hinton broth (MHB) microdilution susceptibility. It is filed as cell-based. The note with it: E. cloacae. On the procedure:
(§1) The representative primary gram negative urinary pathogens including Escherichia coli ATCC 25922, Klebsiella pneumoniae, Enterobacter cloacae ATCC 13047, and Proteus mirabilis were used to determine the antimicrobial efficacy of cephalothin in CR 30 medium in reaction to the standard Muller Hinton microdilution antimicrobial susceptibility ((NCCLS Antimicrobial Susceptibility Testing/SC3, January, 1996). Cephalothin was prepared in both standard Muller Hinton broth (MHB) and CR30 medium (CR30M) at the following concentrations: 128, 64, 32, 16, 8, 4, 2, and 0 mg/liter. Bacterial inocula used for each level of inoculation were 1–5×10^4 cfu/100 μl. The assays were performed in microliter wells at 35° C. for 18 hours.
(§2) The bacteria are defined as “resistant” to cephalothin if the organism has an MIC of ≧32 μg/ml, as “intermediate resistant” if the MIC is 16 μg/ml, and as “susceptible” if the MIC is 8 μg/ml as determined by the standard Muller Hinton broth (Manual of Clinical Microbiology, 6th ed. 1995; ASM Press).

Experiment [7] has as its system Escherichia coli ATCC 25922. The description is as above. It counts as cell-based. The note with it: E. coli. The method, then:
as §1, §2

Experiment [8] has as its system Klebsiella pneumoniae. Described as above. It is filed as cell-based. To be noted: K. pneumoniae. The method, then: as §1, §2
For experiment [9], the system named is Proteus mirabilis. The experiment is described as above. The note with it: P. mirabilis. It is filed as cell-based. The method, then:
as §1, §2

The subject of experiment [10] is Enterobacter cloacae ATCC 13047. As to the kind of experiment: CR30 medium (CR30M) microdilution susceptibility. It is filed as cell-based. To be noted: E. cloacae. The method, then:
(§3) The medium is formulated according to techniques well known to those skilled in the art. The medium comprises the uropathogen specific medium with 32 mg/liter of cephalothin.
as §1, §2
On the technique in general: Broth dilution looks for growth in wells or tubes with falling amounts of substance.

The test system of experiment [11] is Escherichia coli ATCC 25922. As to the kind of experiment: CR30 medium (CR30M) microdilution susceptibility. It is filed as cell-based. To be noted: E. coli. The method, then: as §3, §1, §2
The test system of experiment [12] is Klebsiella pneumoniae. The experiment is described as follows: CR30 medium (CR30M) microdilution susceptibility. It counts as cell-based. To be noted: K. pneumoniae. On the procedure:
as §3, §1, §2

The subject of experiment [13] is Proteus mirabilis. As to the kind of experiment: CR30 medium (CR30M) microdilution susceptibility. It is filed as cell-based. The note with it: P. mirabilis. The method, then:
as §3, §1, §2

The mark [14] stands for this setting: Susceptible by Kirby-Bauer Assay.

Take `CC1(C)S[C@@H]2[C@H](NC(=O)[C@H](N)c3ccc(O)cc3)C(=O)N2[C@H]1C(=O)O` [Amoxicillin, amoxicillin]: in experiment [1] (Resistant by Kirby-Bauer Assay), the “number of specimens Resistant in AMO Medium” value was 21 and the “number of specimens Susceptible in AMO Medium” value worked out at 1. For the same compound, in [1] (setting [14]), the “number of specimens Resistant in AMO Medium” value was 1 and the “number of specimens Susceptible in AMO Medium” value was 35. Moreover, in experiment [1] (Total of 58), the “number of specimens Resistant in AMO Medium” value amounted to 22 and the “number of specimens Susceptible in AMO Medium” value turned out to be 36. In [2], the “number of specimens Resistant by Kirby-Bauer Assay” value came out at 22 and the “number of specimens Susceptible by Kirby-Bauer Assay” value came out at 36. In [3], the “susceptibility of primary gram negative uropathogens to the antimicrobial agent” value is given as “resistant”.
As for `CCN1CCN(c2cc3c(cc2F)c(=O)c(C(=O)O)cn3C2CC2)CC1` [Enrofloxacin, enrofloxacin], the “number of specimens Resistant in ENR Medium” value is given as 5 in experiment [4] (Resistant by Kirby-Bauer Assay), 2 in experiment [4] (setting [14]) and 7 in [4] (Total of 58). For the same compound, the figures for the “number of specimens Susceptible in ENR Medium” value in experiment [4] (Resistant by Kirby-Bauer Assay), in [4] (setting [14]) and in experiment [4] (Total of 58) were 1, 50 and 51, respectively. Besides, the “number of specimens Resistant by Kirby-Bauer Assay” value in experiment [5] is listed as 6. Besides, the “number of specimens Susceptible by Kirby-Bauer Assay” value in experiment [5] came out at 52. Further, the “susceptibility of primary gram negative uropathogens to the antimicrobial agent” value in experiment [3] was “susceptible”.
For the compound `CC(=O)OCC1=C(C(=O)O)N2C(=O)[C@@H](NC(=O)Cc3cccs3)[C@H]2SC1` [cephalothin], the “categorical susceptibility to cephalothin” value in experiment [6] is recorded as “resistant”; in [7] it was “susceptible”; in experiment [8], “susceptible”; in [9], “susceptible”; in experiment [10], “resistant”; in experiment [11], “susceptible”. Moreover, the “categorical susceptibility to cephalothin” value in experiment [12] and in experiment [13] was “susceptible” throughout.
